# Source: ChEMBL document CHEMBL1201862, “PubChem BioAssay data set” (2004)
#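 Cells were grown in 96-well plates and exposed to each compound for 48 hours at five concentrations; endpoints were interpolated linearly between bracketing concentrations, or set to the highest concentration if not reached. GI50: concentration for 50% inhibition of growth.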 The source made the active and inactive calls. Rule as the data show it: active = GI50 up to about 1.1 µM and inactive = higher.
# Key:
# Assay in all cases: NCI-60 cell line screen, 48 h
# [1] = tested on: MDA-MB-231
# [2] = tested on: HCC 2998
# [3] = tested on: MOLT-4
# [4] = tested on: NCI-H226
# [5] = tested on: Malme-3M
# [6] = tested on: LOX IMVI
# [7] = tested on: SNB-75
# [8] = tested on: IGROV-1
# [9] = tested on: NCI/ADR-RES
# [10] = tested on: SW-620
# [11] = tested on: U-251
# [12] = tested on: SR
# [13] = tested on: SK-MEL-5
# [14] = tested on: Hs-578T
# [15] = tested on: 786-0
# [16] = tested on: BT-549
# [17] = tested on: SNB-19
# [18] = tested on: TK-10
# [19] = tested on: MDA-MB-435
# [20] = tested on: UO-31
# [21] = tested on: M14
# [22] = tested on: HT-29
# [23] = tested on: HOP-62
# [24] = tested on: CCRF-CEM
# [25] = tested on: HCT-116
# [26] = tested on: OVCAR-5
# [27] = tested on: T47D
# [28] = tested on: SN12C
# [29] = tested on: ACHN
# [30] = tested on: RPMI-8226
# [31] = tested on: PC-3
# [32] = tested on: COLO 205
# [33] = tested on: HCT-15
# [34] = tested on: MCF7
# [35] = tested on: MDA-N
# [36] = tested on: KM12
# [37] = tested on: OVCAR-8
# [38] = tested on: HL-60
# [39] = tested on: UACC-62
# [40] = tested on: SK-MEL-28
# [41] = tested on: SF-268
# [42] = tested on: SF-539
# [43] = tested on: NCI-H23
# [44] = tested on: SK-MEL-2
# [45] = tested on: NCI-H522
# [46] = tested on: EKVX
# [47] = tested on: HOP-92
# [48] = tested on: RXF 393
# [49] = tested on: DU-145
# [50] = tested on: UACC-257
# [51] = tested on: CAKI-1
# [52] = tested on: OVCAR-3
# [53] = tested on: SK-OV-3
# [54] = tested on: SF-295
# [55] = tested on: OVCAR-4
# [56] = tested on: A498
# [57] = tested on: A549
# [58] = tested on: K562
# [59] = tested on: NCI-H460
compound,measurement,setting,value
C=CCO/N=C/c1cc(/N=C(/S)c2ccoc2C)ccc1Cl,GI50,[1],13.3 µM (inactive)
same,GI50,[2],10.5 µM (inactive)
same,GI50,[3],5.71 µM (inactive)
same,GI50,[4],15.9 µM (inactive)
same,GI50,[5],15 µM (inactive)
same,GI50,[6],14.6 µM (inactive)
same,GI50,[7],15.7 µM (inactive)
same,GI50,[8],13.2 µM (inactive)
same,GI50,[9],7.26 µM (inactive)
same,GI50,[10],33.8 µM (inactive)
same,GI50,[11],13.9 µM (inactive)
same,GI50,[12],6.22 µM (inactive)
same,GI50,[13],11.4 µM (inactive)
same,GI50,[14],24.4 µM (inactive)
same,GI50,[15],22.6 µM (inactive)
same,GI50,[16],16.2 µM (inactive)
same,GI50,[17],7.28 µM (inactive)
same,GI50,[18],16.6 µM (inactive)
same,GI50,[19],19.1 µM (inactive)
same,GI50,[20],5.15 µM (inactive)
same,GI50,[21],16.6 µM (inactive)
same,GI50,[22],10.3 µM (inactive)
same,GI50,[23],14.4 µM (inactive)
same,GI50,[24],33.3 µM (inactive)
same,GI50,[25],10.9 µM (inactive)
same,GI50,[26],16.6 µM (inactive)
same,GI50,[27],3.65 µM (inactive)
same,GI50,[28],12.8 µM (inactive)
same,GI50,[29],5.71 µM (inactive)
same,GI50,[30],3.27 µM (inactive)
same,GI50,[31],11.4 µM (inactive)
same,GI50,[32],12.4 µM (inactive)
same,GI50,[33],8.26 µM
same,GI50,[34],9.66 µM (inactive)
same,GI50,[35],13.6 µM (inactive)
same,GI50,[36],7.93 µM (inactive)
same,GI50,[37],13.5 µM (inactive)
same,GI50,[38],20.6 µM (inactive)
same,GI50,[39],14.4 µM (inactive)
same,GI50,[40],37.8 µM (inactive)
same,GI50,[41],14.8 µM (inactive)
same,GI50,[42],25.4 µM (inactive)
same,GI50,[43],10 µM (inactive)
same,GI50,[44],13.6 µM (inactive)
same,GI50,[45],8.22 µM (inactive)
same,GI50,[46],11.9 µM (inactive)
same,GI50,[47],17.3 µM (inactive)
same,GI50,[48],21.3 µM (inactive)
same,GI50,[49],14 µM (inactive)
same,GI50,[50],14.9 µM (inactive)
same,GI50,[51],9.84 µM (inactive)
same,GI50,[52],11.5 µM (inactive)
same,GI50,[53],18 µM (inactive)
same,GI50,[54],9.48 µM (inactive)
same,GI50,[55],5.18 µM (inactive)
same,GI50,[56],20 µM (inactive)
same,GI50,[57],21 µM (inactive)
Cc1cc(S(=O)(=O)Nc2n[nH]c(-c3ccc(Cl)cc3)n2)c(SSc2cc(Cl)c(C)cc2S(=O)(=O)Nc2n[nH]c(-c3ccc(Cl)cc3)n2)cc1Cl,GI50,[1],31.3 µM (inactive)
same,GI50,[2],19.6 µM (inactive)
same,GI50,[3],25.8 µM (inactive)
same,GI50,[4],22.5 µM (inactive)
same,GI50,[5],46.3 µM (inactive)
same,GI50,[6],26.2 µM (inactive)
same,GI50,[7],27.9 µM (inactive)
same,GI50,[8],22 µM (inactive)
same,GI50,[9],47.1 µM (inactive)
same,GI50,[10],24.8 µM (inactive)
same,GI50,[11],25.2 µM (inactive)
same,GI50,[12],25.5 µM (inactive)
same,GI50,[13],33.2 µM (inactive)
same,GI50,[14],28.2 µM (inactive)
same,GI50,[15],33.7 µM (inactive)
same,GI50,[58],27 µM (inactive)
same,GI50,[16],40.6 µM (inactive)
same,GI50,[18],58.3 µM (inactive)
same,GI50,[19],31.7 µM (inactive)
same,GI50,[20],29.4 µM (inactive)
same,GI50,[21],39.9 µM (inactive)
same,GI50,[22],23.6 µM (inactive)
same,GI50,[23],54.5 µM (inactive)
same,GI50,[24],25.9 µM (inactive)
same,GI50,[25],28.5 µM (inactive)
same,GI50,[26],22 µM (inactive)
same,GI50,[27],14.6 µM (inactive)
same,GI50,[28],43.6 µM (inactive)
same,GI50,[29],32.1 µM (inactive)
same,GI50,[30],37.2 µM (inactive)
same,GI50,[31],29.2 µM (inactive)
same,GI50,[32],25.9 µM (inactive)
same,GI50,[33],25.1 µM
same,GI50,[34],24.6 µM (inactive)
same,GI50,[35],41.3 µM (inactive)
same,GI50,[36],29.2 µM (inactive)
same,GI50,[37],34.4 µM (inactive)
same,GI50,[38],23.2 µM (inactive)
same,GI50,[39],21.4 µM (inactive)
same,GI50,[40],33 µM (inactive)
same,GI50,[41],34.1 µM (inactive)
same,GI50,[42],40.8 µM (inactive)
same,GI50,[43],34.5 µM (inactive)
same,GI50,[45],32.2 µM (inactive)
same,GI50,[46],32.5 µM (inactive)
same,GI50,[47],25.1 µM (inactive)
same,GI50,[48],25.1 µM (inactive)
same,GI50,[49],32.1 µM (inactive)
same,GI50,[50],61.7 µM (inactive)
same,GI50,[51],34.2 µM (inactive)
same,GI50,[52],28.3 µM (inactive)
same,GI50,[53],39.5 µM (inactive)
same,GI50,[59],22.4 µM (inactive)
same,GI50,[54],31.7 µM (inactive)
same,GI50,[55],28.5 µM (inactive)
same,GI50,[56],24.6 µM (inactive)
same,GI50,[57],41.5 µM (inactive)
